# In PubChem BioAssay AID1117334 (Cheminformatics & Chemogenomics Research Group (CCRG), …, 2015):
# Activity calls are given as the source filed them. No rule for the calls is given here.
# Tested on: Colo320 viability, CellTiter-Glo luminescence
# Assay: cytotoxicity toward Colo320 cells – cell-based, CellTiter-Glo luminescence, IC50, dose response (AID 1117334)
row,SMILES,IC50
1,CO[C@@]12[C@H](COC(N)=O)C3=C(C(=O)C(C)=C(N)C3=O)N1C[C@@H]1N[C@@H]12,12.6 µM (inactive)
2,OCCN1CCN(CC/C=C2/c3ccccc3Sc3ccc(C(F)(F)F)cc32)CC1,2.31 µM
3,CC(C)n1c(/C=C/[C@@H](O)C[C@@H](O)CC(=O)O)c(-c2ccc(F)cc2)c2ccccc21,13 µM (inactive)
4,CCN(CC)CCCC(C)Nc1c2ccc(Cl)cc2nc2ccc(OC)cc12 (stereo unspecified),8.44 µM (inactive)
5,O=C1[O][Bi][O]c2ccccc21,> 20 µM (inactive)
6,CC(=O)[O][Hg][c]1ccccc1,1.3 µM
7,CCCCCCCCCCCCCC[N+](C)(C)C,2.52 µM
8,O=C(O)C1(C(=O)O)CCC1.[NH2-].[NH2-].[Pt+2],> 20 µM (inactive)
9,Cc1ccc([N+](=O)[O-])[c]2c1[O][Hg]2,0.935 µM
10,Cn1cnc([N+](=O)[O-])c1Sc1ncnc2nc[nH]c12,10.3 µM (inactive)
11,O=Cc1ccc(O)c(O)c1O,9.08 µM (inactive)
